50 compounds from ChEMBL document CHEMBL4152334, “Synthesis, molecular docking and biological evaluation of novel phthaloyl derivatives of 3-amino-3-aryl propionic acids as inhibitors of Trypanosoma cruzi trans-sialidase” (2018) can be followed below.

Each structure is given as a SMILES string.

Holding throughout (assay type): functional
For experiment [1], the system named is Trypanosoma cruzi. Kind of experiment: Trypanocidal activity against trypomastigote stage of Trypanosoma cruzi NINOA infected in NIH mouse blood assessed as parasite lysis at 10 ug/ml after 24 hrs by optical microscopic method relative to control.
For experiment [2], the system named is Trypanosoma cruzi. Kind of experiment: Trypanocidal activity against trypomastigote stage of Trypanosoma cruzi INC-5 infected in NIH mouse blood assessed as parasite lysis at 10 ug/ml after 24 hrs by optical microscopic method relative to control.
The test system of experiment [3] is Trypanosoma cruzi. Kind of experiment: Trypanocidal activity against trypomastigote stage of Trypanosoma cruzi NINOA infected in NIH mouse blood assessed as […] parasite lysis after 24 hrs by optical microscopic method.
Experiment [4] deals with Trypanosoma cruzi. Kind of experiment: Trypanocidal activity against trypomastigote stage of Trypanosoma cruzi INC-5 infected in NIH mouse blood assessed as parasite lysis after 24 hrs by optical microscopic method. The conditions noted are these: INC-5, Blood.

For `CCc1ccc(C(CC(=O)O)N2C(=O)c3ccc(C(=O)O)cc3C2=O)cc1` (stereo unspecified), the Activity with Trypanosoma cruzi [1] is recorded as 23%; in the experiment with Trypanosoma cruzi [2], 61%.
As usually defined, the LC50 is the concentration lethal to half of the exposed cells or organisms. Regarding `O=C(O)CC(c1ccc([N+](=O)[O-])cc1)N1C(=O)c2ccccc2C1=O` (stereo unspecified), the LC50 with Trypanosoma cruzi [3] came to 53.5 µM; with Trypanosoma cruzi [4] it was 119 µM. Further, the Activity is recorded as 62% in the experiment on Trypanosoma cruzi [1] and 80% with Trypanosoma cruzi [2].
For `O=C(O)CC(c1ccc2c(c1)OCCO2)N1C(=O)c2ccccc2C1=O` (stereo unspecified), the figures for the Activity with Trypanosoma cruzi [1] and in the experiment with Trypanosoma cruzi [2] were 24% and 41%, respectively.
In the case of `Cc1ccc2c(c1)C(=O)N(C(CC(=O)O)c1ccc(Br)cc1)C2=O` (stereo unspecified), the LC50 in the experiment with Trypanosoma cruzi [3] is 24.6 µM; in the experiment on Trypanosoma cruzi [4] it was 23 µM. The Activity was 65% with Trypanosoma cruzi [1] and 50% in the experiment with Trypanosoma cruzi [2].
Taken in the same sequence, the figures for `Cc1ccc(C(N)CC(=O)O)cc1` (stereo unspecified) were 184 µM, 290 µM, 78% and 59%.
As to `O=C(O)CC(c1ccc(Br)cc1)N1C(=O)c2ccc(C(=O)O)cc2C1=O` (stereo unspecified), the Activity in the experiment on Trypanosoma cruzi [1] is 23%; in the experiment on Trypanosoma cruzi [2], 56%.
Taken in the same sequence, the figures for `O=C(O)CC(c1ccc([N+](=O)[O-])cc1)N1C(=O)c2ccc(C(=O)O)cc2C1=O` (stereo unspecified) were 23% and 63%.
Taken in the same sequence, the figures for `O=C(O)CC(c1ccc(F)cc1)N1C(=O)c2ccc(C(=O)O)cc2C1=O` (stereo unspecified) were 10% and 67%.
With `Cc1ccc(C(CC(=O)O)N2C(=O)c3ccccc3C2=O)cc1` (stereo unspecified), the results for the Activity in the experiment on Trypanosoma cruzi [1] and with Trypanosoma cruzi [2] were 23% and 22%, respectively.
The matching figures for `O=C(O)CC(c1cccs1)N1C(=O)c2ccc(C(=O)O)cc2C1=O` (stereo unspecified): 67% and 19%.
The matching figures for `Cc1ccc2c(c1)C(=O)N(C(CC(=O)O)c1ccc([N+](=O)[O-])cc1)C2=O` (stereo unspecified): 45% and 25%.
As for `NC(CC(=O)O)c1ccc([N+](=O)[O-])cc1` (stereo unspecified), the LC50 stood at 125 µM with Trypanosoma cruzi [3] and 249 µM with Trypanosoma cruzi [4]. In addition, the Activity was 50% with Trypanosoma cruzi [1] and 68% in the experiment on Trypanosoma cruzi [2].
For the compound `Cc1ccc2c(c1)C(=O)N(C(CC(=O)O)c1ccc(-c3ccccc3)cc1)C2=O` (stereo unspecified), the Activity with Trypanosoma cruzi [1] and with Trypanosoma cruzi [2] was 25% each time.
For the compound `NC(CC(=O)O)c1ccc(-c2ccccc2)cc1` (stereo unspecified), the Activity in the experiment on Trypanosoma cruzi [1] amounted to 32%; in the experiment on Trypanosoma cruzi [2] it was 37%.
Taken in the same sequence, the figures for `Cc1ccc2c(c1)C(=O)N(C(CC(=O)O)c1ccc3c(c1)OCCO3)C2=O` (stereo unspecified) were 47% and 40%.
In the case of `CCc1ccc(C(N)CC(=O)O)cc1` (stereo unspecified), the LC50 is 113 µM in the experiment on Trypanosoma cruzi [3] and 264 µM in the experiment with Trypanosoma cruzi [4]. Moreover, the values for the Activity with Trypanosoma cruzi [1] and with Trypanosoma cruzi [2] were 65% and 50%, respectively.
In the case of `O=C(O)CC(c1ccc2c(c1)OCCO2)N1C(=O)c2ccc(C(=O)O)cc2C1=O` (stereo unspecified), the Activity in the experiment on Trypanosoma cruzi [1] worked out at 33%; in the experiment on Trypanosoma cruzi [2] it was 47%.
Taken in the same sequence, the figures for `O=C(O)CC(c1ccc(Cl)cc1)N1C(=O)c2ccc(C(=O)O)cc2C1=O` (stereo unspecified) were 3% and 69%.
Regarding `CC1CS(=O)(=O)CCN1/N=C/c1ccc([N+](=O)[O-])o1` (stereo unspecified) [NIFURTIMOX], the Activity with Trypanosoma cruzi [1] is 40.74%; with Trypanosoma cruzi [2] it was 50%.
For the compound `COc1ccc(C(CC(=O)O)N2C(=O)c3ccc(C(=O)O)cc3C2=O)cc1` (stereo unspecified), the Activity was 72% with Trypanosoma cruzi [1] and 32% with Trypanosoma cruzi [2].
For the compound `O=C(O)CC(c1ccc(Cl)cc1)N1C(=O)c2ccccc2C1=O` (stereo unspecified), the results for the Activity with Trypanosoma cruzi [1] and in the experiment with Trypanosoma cruzi [2] were 36% and 70%, respectively.
As to `COc1ccc(C(N)CC(=O)O)cc1` (stereo unspecified), the results for the LC50 in the experiment with Trypanosoma cruzi [3] and in the experiment on Trypanosoma cruzi [4] were 102 µM and 256 µM, respectively. Besides, the Activity in the experiment on Trypanosoma cruzi [1] turned out to be 83%; with Trypanosoma cruzi [2], 54%.
Consider `O=C(O)CC(c1ccc(-c2ccccc2)cc1)N1C(=O)c2ccc(C(=O)O)cc2C1=O` (stereo unspecified), for which the Activity in the experiment on Trypanosoma cruzi [1] was determined as 17%; with Trypanosoma cruzi [2], 57%.
Consider `Cc1ccc(C(CC(=O)O)N2C(=O)c3ccc(C(=O)O)cc3C2=O)cc1` (stereo unspecified), for which the LC50 in the experiment on Trypanosoma cruzi [3] was 110 µM; in the experiment on Trypanosoma cruzi [4], 39.9 µM. Also, the Activity in the experiment with Trypanosoma cruzi [1] was found to be 85%; in the experiment on Trypanosoma cruzi [2], 55%.
As for `O=C(Cn1ccnc1[N+](=O)[O-])NCc1ccccc1` [BENZNIDAZOLE], the results for the LC50 in the experiment with Trypanosoma cruzi [3] and in the experiment with Trypanosoma cruzi [4] were 130 µM and 124 µM, respectively. Further, the Activity came out at 46.3% with Trypanosoma cruzi [1] and 56% in the experiment on Trypanosoma cruzi [2].
For `Cc1ccc2c(c1)C(=O)N(C(CC(=O)O)c1ccc(Cl)cc1)C2=O` (stereo unspecified), the LC50 in the experiment on Trypanosoma cruzi [3] amounted to 37.7 µM; in the experiment with Trypanosoma cruzi [4], 52 µM. Besides, the Activity in the experiment on Trypanosoma cruzi [1] turned out to be 52%; with Trypanosoma cruzi [2], 51%.
In the case of `NC(CC(=O)O)c1ccc(Cl)cc1` (stereo unspecified), the Activity in the experiment on Trypanosoma cruzi [1] is recorded as 13%; in the experiment with Trypanosoma cruzi [2], 73%.
For `NC(CC(=O)O)c1ccc(F)cc1` (stereo unspecified), the Activity with Trypanosoma cruzi [1] is recorded as 35%; with Trypanosoma cruzi [2] it was 62%.
With `CCc1ccc(C(CC(=O)O)N2C(=O)c3ccccc3C2=O)cc1` (stereo unspecified), the Activity in the experiment on Trypanosoma cruzi [1] was 22%; in the experiment with Trypanosoma cruzi [2], 8%.
As to `COc1ccc(C(CC(=O)O)N2C(=O)c3ccc(C)cc3C2=O)cc1` (stereo unspecified), the LC50 with Trypanosoma cruzi [3] came out at 65.6 µM; in the experiment on Trypanosoma cruzi [4] it was 59.5 µM. Also, the Activity is given as 78% with Trypanosoma cruzi [1] and 57% with Trypanosoma cruzi [2].
In the case of `O=C(O)CC(c1ccccc1[N+](=O)[O-])N1C(=O)c2ccccc2C1=O` (stereo unspecified), the Activity in the experiment on Trypanosoma cruzi [1] was determined as 56%; in the experiment on Trypanosoma cruzi [2], 68%.
Taken in the same sequence, the figures for `NC(CC(=O)O)c1cccs1` (stereo unspecified) were 8% and 32%.
For `O=C(O)CC(c1ccc(F)cc1)N1C(=O)c2ccccc2C1=O` (stereo unspecified), the LC50 in the experiment with Trypanosoma cruzi [3] stood at 90.8 µM; with Trypanosoma cruzi [4] it was 81.4 µM. The Activity with Trypanosoma cruzi [1] is recorded as 63%; with Trypanosoma cruzi [2], 52%.
Take `O=C(O)CC(c1ccccc1[N+](=O)[O-])N1C(=O)c2ccc(C(=O)O)cc2C1=O` (stereo unspecified): the Activity with Trypanosoma cruzi [1] turned out to be 48%; in the experiment on Trypanosoma cruzi [2], 68%.
Taken in the same sequence, the figures for `NC(CC(=O)O)c1ccccc1[N+](=O)[O-]` (stereo unspecified) were 23% and 63%.
Take `O=C(O)CC(c1cc2c(cc1[N+](=O)[O-])OCCO2)N1C(=O)c2ccc(C(=O)O)cc2C1=O` (stereo unspecified): the Activity amounted to 40% with Trypanosoma cruzi [1] and 59% in the experiment with Trypanosoma cruzi [2].
Taken in the same sequence, the figures for `CCc1ccc(C(CC(=O)O)N2C(=O)c3ccc(C)cc3C2=O)cc1` (stereo unspecified) were 65% and 59%.
Take `Cc1ccc2c(c1)C(=O)N(C(CC(=O)O)c1ccc(F)cc1)C2=O` (stereo unspecified): the values for the LC50 in the experiment on Trypanosoma cruzi [3] and in the experiment on Trypanosoma cruzi [4] were 45.2 µM and 74.6 µM, respectively. Also, the values for the Activity in the experiment with Trypanosoma cruzi [1] and with Trypanosoma cruzi [2] were 63% and 56%, respectively.
On to `NC(CC(=O)O)c1cc2c(cc1[N+](=O)[O-])OCCO2` (stereo unspecified), for which the Activity with Trypanosoma cruzi [1] came to 7%; in the experiment on Trypanosoma cruzi [2], 15%.
For the compound `Cc1ccc(C(CC(=O)O)N2C(=O)c3ccc(C)cc3C2=O)cc1` (stereo unspecified), the figures for the LC50 in the experiment with Trypanosoma cruzi [3] and with Trypanosoma cruzi [4] were 85.6 µM and 43.6 µM, respectively. Also, the Activity in the experiment with Trypanosoma cruzi [1] turned out to be 73%; in the experiment on Trypanosoma cruzi [2], 67%.
In the case of `O=C(O)CC(c1cc2c(cc1[N+](=O)[O-])OCCO2)N1C(=O)c2ccccc2C1=O` (stereo unspecified), the Activity in the experiment with Trypanosoma cruzi [1] was 54%; in the experiment with Trypanosoma cruzi [2], 13%.
The matching figures for `NC(CC(=O)O)c1ccc2c(c1)OCCO2` (stereo unspecified): 37% and 52%.
Taken in the same sequence, the figures for `Cc1ccc2c(c1)C(=O)N(C(CC(=O)O)c1ccccc1[N+](=O)[O-])C2=O` (stereo unspecified) were 22% and 65%.
The matching figures for `O=C(O)CC(c1cccs1)N1C(=O)c2ccccc2C1=O` (stereo unspecified): 22% and 25%.
As for `NC(CC(=O)O)c1ccc(Br)cc1` (stereo unspecified), the Activity with Trypanosoma cruzi [1] was 20%; in the experiment with Trypanosoma cruzi [2], 18%.
Taken in the same sequence, the figures for `O=C(O)CC(c1ccc(Br)cc1)N1C(=O)c2ccccc2C1=O` (stereo unspecified) were 8% and 15%.
With `Cc1ccc2c(c1)C(=O)N(C(CC(=O)O)c1cc3c(cc1[N+](=O)[O-])OCCO3)C2=O` (stereo unspecified), the Activity in the experiment on Trypanosoma cruzi [1] is recorded as 47%; in the experiment on Trypanosoma cruzi [2], 63%.
Turning to `Cc1ccc2c(c1)C(=O)N(C(CC(=O)O)c1cccs1)C2=O` (stereo unspecified), the Activity in the experiment on Trypanosoma cruzi [1] was found to be 47%; in the experiment on Trypanosoma cruzi [2] it was 48%.
On to `COc1ccc(C(CC(=O)O)N2C(=O)c3ccccc3C2=O)cc1` (stereo unspecified), for which the Activity in the experiment on Trypanosoma cruzi [1] amounted to 24%; in the experiment on Trypanosoma cruzi [2], 9%.
For `O=C(O)CC(c1ccc(-c2ccccc2)cc1)N1C(=O)c2ccccc2C1=O` (stereo unspecified), the Activity came out at 31% in the experiment on Trypanosoma cruzi [1] and 22% in the experiment on Trypanosoma cruzi [2].
